pIC50: −log10 of the molar value.
Tested on: 349418-098-R-PDC complex spheroid viability
Experiment: Anticancer human tumor 349418-098-R-PDC patient-derived lung adenocarcinoma cell line growth inhibition [RAS]
Conditions: for pIC50: curve of first compound; for viability, T/C: stronger effect = lower value
Excerpt: RAS pathway inhibitors in Combinations in Complex Spheroids
A high-throughput screen of multi-cell type tumor spheroids was designed to identify active combinations of RAS pathway inhibitors and targeted small molecules. Complex spheroids include a stromal component modeled by human endothelial cells (HUVEC) and fibroblasts modeled by human mesenchymal stem cells (MSCs). The concentration ranges selected for each drug and investigational agent were based upon clinically achievable concentrations if the clinical Cmax of the agent was known.
Compounds. The drugs and investigational agents: abemaciclib (NSC768073), cobimetinib (NSC768068), divarasib (GDC6063, NSC841802), docetaxel (NSC628503), GDC-1971 (RLY-1971, NSC841576), gemcitabine (NSC613327), inavolisib (NSC800729), ipatasertib (NSC767898), KB-0742 (NSC834161), MRTX-1133 (NSC836407), osimertinib (NSC779217), RMC-4630 (NSC839698), RMC-6236 (NSC851965), RMC-6291 (NSC852671), Ro-3306 (NSC812927), sapanisertib (NSC764658), SN-38 (NSC673596), staurosporine (NSC755774), SY5609 (NSC837396), and tovorafenib (DAY101, NSC766906), were obtained from the National Cancer Institute (NCI) Developmental Therapeutics Program Chemical Repository. The FDA-approved anticancer drug set is available from the NCI Developmental Therapeutics Program. […] The stock solutions were prepared in dimethyl sulfoxide (DMSO, Sigma-Aldrich, St. Louis, MO, cat. D2650) at 800-fold the tested concentration and stored at -70 degrees C prior to their use. All drugs and investigational agents were tested over a range starting from a high concentration at or near the clinical Cmax and decreasing in half-log increments. If the clinical Cmax for an agent had not been determined, the highest concentration tested was 10 microM.
Cell Culture. All cells were maintained in an incubator at 37 degrees C and 5% CO2 with 95% humidity. The PDC lines were cultured according to standard operating procedures established by the NCI PDMR. All PDCs were thawed and cultured in Matrigel-coated flasks prepared with a working solution of 1X Ham's F-12 nutrient mix, without supplementation (Invitrogen, Waltham, MA, cat. 11765054), 100 U/mL penicillin-streptomycin (Invitrogen, cat. 15140122), and 2.5% Matrigel (Corning Inc., Corning, NY, cat. 354248) for the first three passages. The 362531-283-R-J2-PDC and 782815-120-R-J1-PDC lines were cultured in 6C/Colon 1B media, which includes advanced DMEM/F-12 (Thermo Fisher Scientific, cat. 12634028), 10 mM HEPES (Thermo Fisher Scientific, cat. 15630080), 1X GlutaMAX supplement (Thermo Fisher Scientific, cat. 35050061), 0.1 mg/mL primocin (InvivoGen, San Diego, CA, cat. ant-pm-2), 10% defined fetal bovine serum, heat inactivated (HyClone Laboratories Inc., Logan, UT, cat. SH30070.03HI), 50% L-WRN conditioned media (ATCC, cat. CRL-3276), 1.25 mM N-Acetyl-L-cysteine (Sigma-Aldrich, cat. A9165), 10 mM nicotinamide (Sigma-Aldrich, cat. N0636), 1X B-27 supplement (Thermo Fisher Scientific, cat. 17504044), 1X N-2 supplement (Thermo Fisher Scientific, cat. 17502048), 50 ng/mL human EGF (Thermo Fisher Scientific, cat. PHG0311), and 10 microM Y-27632 dihydrochloride (Tocris Bioscience, cat. 1254). The K12877-001-R-J1-PDC line was cultured in 6I media, which includes all 6C/Colon 1B media plus 10 ng/mL human FGF-10 (PeproTech, cat. 100-26), 1 ng/mL human FGF-2 (PeproTech, cat. 100-18B), 1 µM prostaglandin E2 (Tocris Bioscience, cat. 2296), […] hydrocortisone (Sigma-Aldrich, cat. H4001), and […] bovine insulin (Sigma-Aldrich, cat. I6634). The K86415-001-R-J1-PDC line was cultured in 6D media, which includes all 6C/Colon 1B media components minus the L-WRN conditioned media. The 485176-168-R4-J1-PDC was cultured in PANC media, which includes all 6C/Colon 1B media plus 100 ng/mL human FGF-10 (PeproTech, cat. 100-26), 500 nM SB-431542 (Selleckchem, cat. S1067), and 10 nM gastrin (Tocris Bioscience, cat. 3006). […]
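Also: spheroids exposed to compound for seven days before viability readout.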

Question: C=CC(=O)Nc1cc(Nc2nccc(-c3cn(C)c4ccccc34)n2)c(OC)cc1N(C)CCN(C)C + C#Cc1c(F)ccc2cc(O)cc(-c3ncc4c(N5CC6CCC(C5)N6)nc(OCC56CCCN5CC(F)C6)nc4c3F)c12 was tested. Which pIC50 (second compound 0.0316 µM) did it give?
Answer: < 6.00

Question: And the pIC50 (second compound 0.1 µM)?
Answer: < 6.00

Question: What about the pIC50 (second compound 0.316 µM) of the same compound?
Answer: < 6.00

Question: What about the pIC50 (second compound 1 µM) of the same compound?
Answer: < 6.00

Question: And the pIC50 (second compound 3.16 µM)?
Answer: < 6.00

Question: What about the pIC50 (second compound 10 µM) of the same compound?
Answer: 6.33

Question: What about the viability, T/C (second compound 0.0316 µM, first compound 0.00316 µM) of the same compound?
Answer: 97.1%

Question: What about the viability, T/C (second compound 0.0316 µM, first compound 0.01 µM) of the same compound?
Answer: 130%

Question: And the viability, T/C (second compound 0.0316 µM, first compound 0.0316 µM)?
Answer: 95.5%

Question: What about the viability, T/C (second compound 0.0316 µM, first compound 0.1 µM) of the same compound?
Answer: 86.1%

Question: And the viability, T/C (second compound 0.0316 µM, first compound 0.316 µM)?
Answer: 84.3%

Question: What about the viability, T/C (second compound 0.0316 µM, first compound 1 µM) of the same compound?
Answer: 92.3%

Question: And the viability, T/C (second compound 0.1 µM, first compound 0.00316 µM)?
Answer: 93.5%

Question: And the viability, T/C (second compound 0.1 µM, first compound 0.01 µM)?
Answer: 125%

Question: What about the viability, T/C (second compound 0.1 µM, first compound 0.0316 µM) of the same compound?
Answer: 82.3%

Question: What about the viability, T/C (second compound 0.1 µM, first compound 0.1 µM) of the same compound?
Answer: 68.3%

Question: And the viability, T/C (second compound 0.1 µM, first compound 0.316 µM)?
Answer: 80.2%

Question: What about the viability, T/C (second compound 0.1 µM, first compound 1 µM) of the same compound?
Answer: 66.5%

Question: And the viability, T/C (second compound 0.316 µM, first compound 0.00316 µM)?
Answer: 86.7%

Question: And the viability, T/C (second compound 0.316 µM, first compound 0.01 µM)?
Answer: 119%

Question: What about the viability, T/C (second compound 0.316 µM, first compound 0.0316 µM) of the same compound?
Answer: 85.8%

Question: What about the viability, T/C (second compound 0.316 µM, first compound 0.1 µM) of the same compound?
Answer: 86.2%

Question: What about the viability, T/C (second compound 0.316 µM, first compound 0.316 µM) of the same compound?
Answer: 89.5%

Question: What about the viability, T/C (second compound 0.316 µM, first compound 1 µM) of the same compound?
Answer: 95.7%

Question: What about the viability, T/C (second compound 1 µM, first compound 0.00316 µM) of the same compound?
Answer: 80.2%

Question: What about the viability, T/C (second compound 1 µM, first compound 0.01 µM) of the same compound?
Answer: 121%

Question: What about the viability, T/C (second compound 1 µM, first compound 0.0316 µM) of the same compound?
Answer: 85.3%

Question: What about the viability, T/C (second compound 1 µM, first compound 0.1 µM) of the same compound?
Answer: 73.1%

Question: What about the viability, T/C (second compound 1 µM, first compound 0.316 µM) of the same compound?
Answer: 89.2%

Question: What about the viability, T/C (second compound 1 µM, first compound 1 µM) of the same compound?
Answer: 82.5%

Question: And the viability, T/C (second compound 3.16 µM, first compound 0.00316 µM)?
Answer: 73.6%

Question: And the viability, T/C (second compound 3.16 µM, first compound 0.01 µM)?
Answer: 91.2%

Question: What about the viability, T/C (second compound 3.16 µM, first compound 0.0316 µM) of the same compound?
Answer: 84.9%

Question: What about the viability, T/C (second compound 3.16 µM, first compound 0.1 µM) of the same compound?
Answer: 82.8%

Question: What about the viability, T/C (second compound 3.16 µM, first compound 0.316 µM) of the same compound?
Answer: 67.6%

Question: And the viability, T/C (second compound 3.16 µM, first compound 1 µM)?
Answer: 86.4%

Question: What about the viability, T/C (second compound 10 µM, first compound 0.00316 µM) of the same compound?
Answer: 55.6%

Question: What about the viability, T/C (second compound 10 µM, first compound 0.01 µM) of the same compound?
Answer: 62%

Question: And the viability, T/C (second compound 10 µM, first compound 0.0316 µM)?
Answer: 88.9%

Question: What about the viability, T/C (second compound 10 µM, first compound 0.1 µM) of the same compound?
Answer: 65.2%

Question: What about the viability, T/C (second compound 10 µM, first compound 0.316 µM) of the same compound?
Answer: 72.9%

Question: What about the viability, T/C (second compound 10 µM, first compound 1 µM) of the same compound?
Answer: 12.4%

— PubChem BioAssay AID2060904 (Molecular Pharmacology Branch, DTP, NCI, 2025)
